Structures can show the parent of a compound that is named as a salt.
Test system: children and adolescents with autistic spectrum disorders
Assay: Open-label trial of Memantine in children and adolescents with autistic spectrum disorders
Format: in vivo, human
Description: In support of the present invention, an experiment was conducted to evaluate the use of Memantine in children and adolescents with autistic spectrum disorders (hereinafter referred to as “ASD”). […] A range of 2.5-10 mg per day of Memantine was applied as an open-label trial in children with ASD. Clinical observations of global function in language and/or behavior pattern were assessed. Thirty patients, including 24 males and 6 females with an average age of 8.92 years and meeting DSM-IV criteria for ASD, were treated with Memantine for greater than 8 weeks. The patients were evaluated using a global clinical improvement scale rating for improvement in language and behaviors based on parental observation and clinical appearance. Improvements were rated as follows: moderate to significant, mild to moderate, or no improvement. The therapy ranged from between 8 to 40 weeks, with an average duration of therapy of 18 weeks and an average daily dosage of 8.1 mg. After the thirty patients were treated for more than 2 months with Memantine, parents reported improvements in 26 of the 30 patients in one or more categories: attention, motor planning, language function (both receptively and expressively), and self-stimulatory behaviors. Moderate to significant improvement occurred in 16 of the 26, with milder improvement in 10 of the 26.

[1] = open-label, 2.5-10 mg per day, treated more than 2 months, global clinical improvement scale

CC12CC3CC(C)(C1)CC(N)(C3)C2 [Memantine, 1-amino-3,5-dimethyladamantane hydrochloride]
frontal executive functions (attention, speech expression, perseveration) (open-label trial in ASD, overall clinical observation): appears to clearly improve frontal executive functions | side effects (open-label, 2.5-10 mg per day, 30 patients treated more than 2 months): No side effects were reported | patients with parent-reported improvements in one or more categories (attention, motor planning, language function, self-stimulatory behaviors) (open-label, 2.5-10 mg per day, average 8.1 mg daily, treated more than 2 months (8 to 40 weeks), global clinical improvement scale): 26 of the 30 patients | patients with milder improvement [1]: 10 of the 26 | patients with moderate to significant improvement [1]: 16 of the 26

— patent US20090048348A1, “METHOD FOR TREATING AUTISM” (Forest Laboratories Holdings Ltd., priority 2004, published 2009)
